The results in this text go back to patent publication US8202893B2, “Cannabinergic lipid ligands” (University of Connecticut, priority 2004, dated 2012).

Like-named read-outs stand apart in the source and are kept apart here.

One assay concerns the target T1, Mag-lipase (Rattus norvegicus, UniProt Q8R431).
T1 construct: supernatant from final spin in the anandamide amidase preparation; from tissue; host or cells: supernatant (soluble fraction) of the anandamide amidase preparation, rat brain by the cited procedure
T1 sequence (Q8R431 1-303): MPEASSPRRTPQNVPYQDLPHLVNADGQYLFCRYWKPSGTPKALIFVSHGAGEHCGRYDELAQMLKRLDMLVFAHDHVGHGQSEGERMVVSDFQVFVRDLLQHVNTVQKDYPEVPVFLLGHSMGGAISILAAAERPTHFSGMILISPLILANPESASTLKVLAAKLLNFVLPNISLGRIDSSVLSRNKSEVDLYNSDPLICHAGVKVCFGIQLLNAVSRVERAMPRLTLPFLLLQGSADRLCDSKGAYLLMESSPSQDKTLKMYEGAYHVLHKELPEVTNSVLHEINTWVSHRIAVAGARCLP
Nature of the assay: Inhibition of MAG-lipase: 2-AG metabolism to arachidonic acid. Format: biochemical. The settings on record: 20 min, 30 nmoles compound with 30 nmoles 2-AG, 30 μg enzyme, 300 μL. How it is done: All compound solutions were made to a concentration of 10 mM in DMSO. Three tests were performed on each compound: hydrolysis, to determine the stability of the compound in assay conditions without the enzyme present; metabolism, to determine the stability of the compound with the enzyme present; and inhibition of 2-Arachidonoyl glycerol (native substrate) metabolism to arachidonic acid.
The inhibition of 2-AG metabolism was measured by mixing 30 nmoles of the compound with 30 nmoles 2-AG, and 30 μg enzyme preparation in TME buffer (final volume of 300 μL). Again the reaction mixture was treated in the same manner as described above and the concentrations of 2-AG and AA were calculated using external standards. Percent inhibition was calculated using the following equation: % Inhib.=(AA20-AA0)i/(AA20-AA0)s where (AA20-AA0)i is the amount of arachidonic acid formed over 20 minutes from 2-AG with the inhibitor present and (AA20-AA0)s is the amount of arachidonic acid formed over 20 minutes from 2-AG when the inhibitor is not present. […] The reaction mixtures were treated as described above and the amount of AA formed was calculated. The software package GraphPad Prism was utilized to calculate IC50 and Ki. HPLC Conditions:
Chromatographic separation was achieved using an Ultrasphere ODS Pre-column (4.6×45 mm) from Beckman. Hardware consisted of a Waters Millennium HPLC system with a 20 μL injection loop. The mobile phase consisted of 8.5% o-phosphoric acid:acetonitrile (3:7), run isocratically at a rate of 1 mL/min and detection at 204 nm. The total run time was 8 minutes with 2-AG eluting at 3.0 minutes and AA at 6.0 minutes.

A further assay concerns anandamide transporter. Nature of the assay: [3H]Anandamide transporter competition assay. Format: cell-based. The following applies: human CCF-STG1 astrocytoma cells, 10 nM [3H]anandamide.

In the case of `O=C(CCC/C=C\C/C=C\C/C=C\C/C=C\CCCCc1ccccc1)NCC1CC1` [Compound A1], at Mag-lipase, testing at 100 µM gave an inhibition of 20.5%.

In the case of `O=C(CCC/C=C\C/C=C\C/C=C\C/C=C\CCc1ccccc1)NCC1CC1` [Compound A2], at 100 µM the inhibition at Mag-lipase was 37.5%.

On to `O=C(CCC/C=C\C/C=C\C/C=C\C/C=C\CCc1ccccc1)Nc1ccc(O)cc1` [Compound A3], for which testing at 100 µM against Mag-lipase gave an inhibition of 16.7%. Also, the concentration for half-maximal inhibition (IC50) (as a rule, the concentration that inhibits the measured activity by half) in the assay on anandamide transporter (read-out: IC50 AT inhibition) amounted to 9.1 µM. As for `O=C(CCC/C=C\C/C=C\C/C=C\C/C=C\CCc1ccccc1)Nc1nccs1` [Compound A4], the inhibition (commonly the relative decrease from the control value, in per cent) at 100 µM on Mag-lipase stood at 9.2%. Still for that read-out and setting: in the case of `[N-]=[N+]=NCCCC/C=C\C/C=C\C/C=C\C/C=C\CCCC(=O)NCC1CC1` [Compound A6] it was 20.7%.

In turn, `COc1cc(CNC(=O)CCC/C=C\C/C=C\C/C=C\C/C=C\CCCCN=[N+]=[N-])ccc1O` [Compound A7] gave an inhibition at 100 µM against Mag-lipase of 13.7%. At Mag-lipase, `O=C(CCC/C=C\C/C=C\C/C=C\C/C=C\CCCCCBr)NC1CC1` [Compound A18] registered an inhibition at 100 µM of 22.5%. For the same compound, the IC50 in the assay with anandamide transporter (read-out: IC50 AT inhibition) worked out at 6.7 µM. With `CCCCCC=CCC=CCC=CCC=CCCCCOC(=O)NCC(C)O` (centres unmarked) [Compound B3], at Mag-lipase, the “Mag-Lipase % Inhibition” value is listed as 14.3%. Also, the concentration for half-maximal inhibition (IC50) in the assay on anandamide transporter (read-out: IC50 (AT inhib.)) was 1.5 µM.

In turn, `CCCCC/C=C\C/C=C\C/C=C\C/C=C\CCCCNC(=O)NC[C@H](C)O` [Compound B12] displayed an inhibition at 100 µM at Mag-lipase of 11.1%. Also, the half-maximal inhibitory concentration (IC50) in the assay with anandamide transporter (read-out: IC50 (AT inhib.)) came to 1.78 µM.

`CCCCC/C=C\C/C=C\CCCCCCCCOC(=O)NC[C@H](C)O` [Compound B14]: at Mag-lipase, the “Mag-Lipase % Inhibition” value was found to be 25.8%. In addition, in the assay with anandamide transporter (read-out: IC50 (AT inhib.)), the IC50 was 7.21 µM. For `CC/C=C\C/C=C\C/C=C\CCCCCCCCOC(=O)NC[C@H](C)O` [Compound B15] the same measures were 24.6% and 4.5 µM.
